Data from patent publication US20240336606A1 (Suzhou Zelgen Biopharmaceuticals Co., Ltd., priority 2020, published 2024).

system: H358 cells; experiment: Inhibition of H358 cell proliferation (CellTiter-Glo 3D, 7 days); assay type: cell-based; settings: Homo sapiens, 168 h, NCI-H358, 7 days, read-out: IC50 (nM), inhibitory activity on H358 cell proliferation
Description: • (a) The cells were thawed in T75 cell culture flasks:
• (b) When 80-90% cell confluence was achieved, the cells were passaged.
The diluted test compounds were added to a 384-well cell culture plate using a nanoliter pipetting system, and duplicate wells were set. An equal volume of medium was added to the positive control group; an equal volume of DMSO was added to the negative control group. The plate was centrifuged at 1000 rpm at room temperature for 1 min.
The cells were inoculated into a) 384-well culture plate, an equal volume of cells was added to the negative control group, and only an equal volume of medium was added to the positive control group. The plate was centrifuged at 1000 rpm at room temperature for 1 min. The final concentration of DMSO in the final compounds was 0.5%. The plate was incubated in a thermostatic incubator at 37° C. with 5% CO2 for 7 days.
CellTiter-Glo® 3D was added to b) 384-well cell culture plate at 20 μL/well. The plate was shaken at 320 rpm in the dark for 20 min, and incubated at room temperature in the dark for 2 h. The luminescence values were read using an Envision multi-mode microplate reader.
The inhibition rates of the compounds at different concentrations were calculated in Excel, and then inhibition curves were plotted and relevant parameters including minimum inhibition rate, maximum inhibition rate and IC50 were calculated using GraphPad Prism software.

Row | IC50 [nM] | Structure (SMILES)
1 | 20 | COCCOc1cc2c(N[C@H](C)c3cccc(C(F)(F)C(C)(C)O)c3F)nc(C)nc2cc1OC(C)C [Example 99, (R)-1,1-Difluoro-1-(2-fluoro-3-(1-((7-isopropoxy-6-(2-methoxyethoxy)-2-methylquinazolin-4-yl)amino)ethyl)phenyl)-2-methylpropan-2-ol]
2 | 15.5 | [2H]C([2H])([2H])Oc1cc2nc(C)nc(N[C@H](C)c3cccc(C(F)(F)C(C)(C)O)c3F)c2cc1OCCOC [Example 97, (R)-1,1-Difluoro-1-(2-fluoro-3-(1-((7-deuteratedmethoxy-6-(2-methoxyethoxy)-2-methylquinazolin-4-yl)amino)ethyl)phenyl)-2-methylpro pan-2-ol]
3 | > 10000 | COCCOc1cc2c(N[C@H](C)c3cc(C#N)cc(C(F)(F)C(C)(C)O)c3)nc(C)nc2cc1OC [Example 91, (R)-3-(1,1-Difluoro-2-hydroxy-2-methylpropane)-5-(1-((7-methoxy-6-(2-methoxyethoxy)-2-methylquinazolin-4-yl)amino)ethyl)benzonitrile]
4 | 12.8 | CCOc1cc2nc(C)nc(N[C@H](C)c3cccc(C(F)(F)C(C)(C)O)c3F)c2cc1OCCOC [Example 98, (R)-1-(3-(1-((7-Ethoxy-6-(2-methoxyethoxy)-2-methylquinazolin-4-yl)amino)ethyl)-2-fluor ophenyl)-1,1-difluoro-2-methylpropan-2-ol]
5 | 32.8 | COCCOc1cc2c(N[C@H](C)c3cc(N)cc(C(F)(F)C(C)(C)O)c3)nc(C)nc2cc1-c1cc[nH]n1 [Example 123, (R)-1-(3-Amino-5-(1-((6-(2-methoxyethoxy)-2-methyl-7-(1H-pyrazolyl-3-yl)quinazolin-4-yl)amino)ethyl)phenyl)-1,1-difluoro-2-methylpropan-2-ol]
6 | 15.5 | COCCOc1cc2c(N[C@H](C)c3cccc(C(F)(F)C(C)(C)O)c3F)nc(C)nc2cc1-c1cccnc1 [Example 101, (R)-1,1-Difluoro-1-(2-fluoro-3-(1-((6-(2-methoxyethoxy)-2-methyl-7-(pyridin-3-yl)quinazolin-4-yl)amino)ethyl)phenyl)-2-methylpropyl-2-ol]

target: T1, binding of KRAS^G12C to SOS1 (Homo sapiens, UniProt Q07889); experiment: Inhibition of the binding of KRAS^G12C to SOS1; settings: Tag1-SOS1 / Tag2-KRAS^G12C, 2 h incubation at room temperature; read-out: IC50 (nM), inhibitory activity on the binding of KRAS^G12C to SOS1
T1 construct: Tag1 (unspecified)
T1 sequence (Q07889 1-1333): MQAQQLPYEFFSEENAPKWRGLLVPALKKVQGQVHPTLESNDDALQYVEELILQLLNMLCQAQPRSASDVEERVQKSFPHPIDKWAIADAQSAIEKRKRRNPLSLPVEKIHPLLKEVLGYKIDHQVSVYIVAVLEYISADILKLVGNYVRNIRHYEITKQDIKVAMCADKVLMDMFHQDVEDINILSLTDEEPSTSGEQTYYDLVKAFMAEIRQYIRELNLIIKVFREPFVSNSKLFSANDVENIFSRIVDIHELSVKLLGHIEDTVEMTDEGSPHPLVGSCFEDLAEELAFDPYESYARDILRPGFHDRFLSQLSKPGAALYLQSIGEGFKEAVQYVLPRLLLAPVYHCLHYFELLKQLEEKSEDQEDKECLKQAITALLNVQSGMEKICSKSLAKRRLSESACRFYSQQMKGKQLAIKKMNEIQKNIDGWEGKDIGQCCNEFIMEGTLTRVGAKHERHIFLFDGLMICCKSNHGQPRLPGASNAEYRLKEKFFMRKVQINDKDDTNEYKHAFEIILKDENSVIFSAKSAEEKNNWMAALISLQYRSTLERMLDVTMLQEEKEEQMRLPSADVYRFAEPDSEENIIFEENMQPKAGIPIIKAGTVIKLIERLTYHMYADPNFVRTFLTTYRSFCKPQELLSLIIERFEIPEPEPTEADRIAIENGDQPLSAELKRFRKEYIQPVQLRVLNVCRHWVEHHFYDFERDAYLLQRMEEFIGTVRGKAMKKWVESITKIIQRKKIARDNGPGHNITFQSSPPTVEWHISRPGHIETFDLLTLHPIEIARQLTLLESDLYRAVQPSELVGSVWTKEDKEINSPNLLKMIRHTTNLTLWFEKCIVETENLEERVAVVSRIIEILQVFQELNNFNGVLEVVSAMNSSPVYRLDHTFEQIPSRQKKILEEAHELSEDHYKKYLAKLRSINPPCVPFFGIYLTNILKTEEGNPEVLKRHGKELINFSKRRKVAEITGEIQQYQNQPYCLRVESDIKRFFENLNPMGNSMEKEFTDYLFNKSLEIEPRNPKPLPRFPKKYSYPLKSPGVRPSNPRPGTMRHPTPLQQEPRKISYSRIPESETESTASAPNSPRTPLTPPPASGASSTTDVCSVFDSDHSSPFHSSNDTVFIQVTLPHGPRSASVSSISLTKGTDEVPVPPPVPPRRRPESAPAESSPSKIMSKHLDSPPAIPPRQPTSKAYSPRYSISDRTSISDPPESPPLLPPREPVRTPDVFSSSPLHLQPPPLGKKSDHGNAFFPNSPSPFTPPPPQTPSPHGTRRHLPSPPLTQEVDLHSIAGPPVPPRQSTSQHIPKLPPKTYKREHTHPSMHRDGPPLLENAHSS
Outline: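 Tag1-SOS1 and Tag2-KRAS^G12C mixed with serially diluted compound (final 0.25% DMSO), then anti-Tag1-Tb3+ and anti-Tag2-XL665 added for 2 h at room temperature. IC50 from curve fit of the TR-FRET signal.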

Row | IC50 [nM] | Structure (SMILES)
7 | 70 | COc1cc2nc(C)nc(N[C@H](C)c3cccc(C(F)(F)F)c3F)c2cc1OC[C@@H]1CCCN1 [Example 17, N—((R)-1-(2-Fluoro-3-(trifluoromethyl)phenyl)ethyl)-7-methoxy-2-methyl-6-(((S)-pyrrolin-2-yl)methoxy)quinazolin-4-amine]
8 | 4.7 | COc1cc2nc(C)nc(N[C@H](C)c3cccc(C(F)(F)C(C)(C)O)c3F)c2cc1OC[C@@H]1CN(S(C)(=O)=O)CCO1 [Example 29]
9 | 9.6 | COCC1(COc2cc3c(N[C@H](C)c4cc(N)cc(C(F)(F)F)c4)nc(C)nc3cc2OC)CC1 [Example 56, (R)—N-(1-(3-Amino-5-(trifluoromethyl)phenyl)ethyl)-7-methoxy-6-((1-(methoxymethyl)cyclopropyl)methoxy)-2-methylquinazolin-4-amine]
10 | 4.7 | COc1cc2nc(C)nc(N[C@H](C)c3cc(N)cc(C(F)(F)F)c3)c2cc1OCCN(C)CC1(F)CC1 [Example 21, (R)—N-(1-(3-amino-5-(trifluoromethyl)phenyl)ethyl)-6-(2-(((1-fluorocyclopropyl)methyl)(methyl)amino)ethoxy)-7-methoxy-2-methylquinazolin-4-amine]
11 | 3.6 | COc1cc2nc(C)nc(N[C@H](C)c3cc(N)cc(C(F)(F)F)c3)c2cc1OCC1(CN(C)C)CC1 [Example 11, (R)—N-(1-(3-amino-5-(trifluoromethyl)phenyl)ethyl)-6-((1-((dimethylamino)methyl)cyclopropyl)methoxy)-7-methoxy-2-methylauinazolin-4-amine]
12 | 5.3 | COc1cc2nc(C)nc(N[C@H](C)c3cc(N)cc(C(F)(F)F)c3)c2cc1OCCOc1cccnc1 [Example 62, (R)—N-(1-(3-Amino-5-(trifluoromethyl)phenyl)ethyl)-7-methoxy-2-methyl-6-(2-(pyridin-3-yloxy)ethoxy)quinazolin-4-amine]
13 | 36 | COc1cc2nc(C)nc(N[C@H](C)c3cccc(C(F)(F)F)c3F)c2cc1OC[C@@H]1CCCN1C [Example 18, N—((R)-1-(2-fluoro-3-(trifluoromethyl)phenyl)ethyl)-7-methoxy-2-methyl-6-(((S)-1-methylpyrrolin-2-yl)methoxy)quinazolin-4-amine]
14 | 40 | COCCOc1cc2c(N[C@H](C)c3cc(C(F)(F)C(C)(C)O)ccn3)nc(C)nc2cc1OC [Example 75]
15 | 2.9 | COc1cc2nc(C)nc(N[C@H](C)c3cc(N)cc(C(F)(F)F)c3)c2cc1OCCN(C)CC1CCC1 [Example 10]
16 | 16 | COc1cc2nc(C)nc(N[C@H](C)c3cc(N)cc(C(F)(F)F)c3)c2cc1OCC1(C(C)OC)CC1 (stereo partly drawn) [Example 65, N—((R)-1-(3-Amino-5-(trifluoromethyl)phenyl)ethyl)-7-methoxy-6-((1-(1-methoxyethyl)cyclopropyl)methoxy)-2-methylquinazolin-4-amine]
17 | 188 | COCCOc1cc2c(N[C@H](C)c3cccc(C(F)(F)C(C)(C)O)n3)nc(C)nc2cc1OC [Example 76]
18 | 8.5 | COc1cc2nc(C)nc(N[C@H](C)c3cccc(C(F)(F)C(C)(C)O)c3F)c2cc1OC[C@H]1COCCO1 [Example 27, 1-(3-((R)-1-((6-(((R)-1,4-Dioxan-2-yl)methoxy)-7-methoxy-2-methylquinazolin-4-yl)amino)ethyl)-2-fluorophenyl)-1,1-difluoro-2-methylpropan-2-ol]
19 | 1.9 | COc1cc2nc(C)nc(N[C@H](C)c3cc(N)cc(C(F)(F)F)c3)c2cc1OCCN(C)C1CC1 [Example 8]
20 | 170 | COCCOc1cc2c(N[C@H](C)c3cc(OC)cc(C(F)(F)C(C)(C)O)c3)nc(C)nc2cc1OC [Example 87, (R)-1,1-Difluoro-1-(3-methoxy-5-(1-((7-methoxy-6-(2-methoxyethoxy)-2-methylquinazolin-4-yl)amino)ethyl)phenyl)-2-methylpropan-2-ol]
21 | 15 | CNCC1(COc2cc3c(N[C@H](C)c4cccc(C(F)(F)F)c4F)nc(C)nc3cc2OC)CC1 [Example 54, (R)—N-(1-(2-Fluoro-3-(trifluoromethyl)phenyl)ethyl)-7-methoxy-2-methyl-6-((1-((methylamino)methyl)cyclopropyl)methoxy)quinazolin-4-amine]
22 | 4.2 | COCCOCCOc1cc2c(N[C@H](C)c3cc(N)cc(C(F)(F)F)c3)nc(C)nc2cc1OC [Example 50, (R)—N-(1-(3-Amino-5-(trifluoromethyl)phenyl)ethyl)-7-methoxy-6-(2-(2-methoxyethoxy)ethoxy)-2-methylquinazolin-4-amine]
23 | 7.9 | COc1cc2nc(C)nc(N[C@H](C)c3cc(N)cc(C(F)(F)F)c3)c2cc1OC[C@@H]1COCCO1 [Example 28, 6-(((S)-1,4-Dioxan-2-yl)methoxy)-N—((R)-1-(3-amino-5-(trifluoromethyl)phenyl)ethyl)-7-m ethoxy-2-methylquinazolin-4-amine]
